How the values were obtained:
[1] = tested on: 5′-TGTGAACA-3′; experiment: DNase I footprint titrations; details: single base pair mismatch sequence
[2] = tested on: 5′-TGTAACA-3′; experiment: DNase I footprint titration
[3] = tested on: 5′-TGGAACA-3′; experiment: DNase I footprint titration; details: formal match sequence

Ka [1]	reduction of affinity of the 5′-TGTAACA-3′ complex relative to ImPyPyPyPy-γ-ImPyPyPyPy-β-Dp [2]	free energy difference ([2]; 5′-TGTAACA-3′ complexes)	equilibrium association constant Ka ([2]; pH 7.0, 22° C.)	equilibrium association constant Ka [3]	Structure (SMILES)
< 1e+09 M⁻¹					CN(C)CCCNC(=O)CCNC(=O)c1cc(NC(=O)c2cc(NC(=O)CCNC(=O)c3cc(NC(=O)c4cc(NC(=O)c5nc(NC(=O)CCCNC(=O)c6cc(NC(=O)c7cc(NC(=O)c8cc(NC(=O)CCNC(=O)c9cc(NC(=O)c%10nccn%10C)cn9C)cn8C)cn7C)cn6C)cn5C)cn4C)cn3C)cn2C)cn1C
	> 300 fold	at least 4 kcal/mol	< 1e+07 M⁻¹	3.6×10^9 m^−1	CN(C)CCCNC(=O)CCNC(=O)c1cc(NC(=O)c2cc(NC(=O)c3cc(NC(=O)c4cc(NC(=O)c5nc(NC(=O)CCCNC(=O)c6cc(NC(=O)c7cc(NC(=O)c8cc(NC(=O)c9nc(NC(=O)c%10nccn%10C)cn9C)cn8C)cn7C)cn6C)cn5C)cn4C)cn3C)cn2C)cn1C [ImImPyPyPy-γ-ImPyPyPyPy-β-Dp]

Reference: patent US6555692B1, “Preparation and use of bifunctional molecules having DNA sequence binding specificity” (California Institute of Technology, priority 1996, dated 2003)
